Patent US8791267B2, “Biaryl PDE4 inhibitors for treating inflammatory, cardiovascular and CNS disorders” (Decode Genetics EHF, priority 2007, dated 2014)
Counter-ions that a name gives are not always drawn. Like-named read-outs stand apart in the source and are kept apart here.

Legend:
PDE4 = PDE4 (Homo sapiens, UniProt Q08499); assay: In-vitro assay for PDE4 enzymes, real-time enzyme-coupled spectrophotometric assay (Table 9); type: biochemical
PDE4B = PDE4B (Homo sapiens, UniProt Q07343); assay: In-vitro assay for PDE4 enzymes, real-time enzyme-coupled spectrophotometric assay, PDE4B Activity (Table 10); type: biochemical
PDE4B, sequence (Q07343 whole entry): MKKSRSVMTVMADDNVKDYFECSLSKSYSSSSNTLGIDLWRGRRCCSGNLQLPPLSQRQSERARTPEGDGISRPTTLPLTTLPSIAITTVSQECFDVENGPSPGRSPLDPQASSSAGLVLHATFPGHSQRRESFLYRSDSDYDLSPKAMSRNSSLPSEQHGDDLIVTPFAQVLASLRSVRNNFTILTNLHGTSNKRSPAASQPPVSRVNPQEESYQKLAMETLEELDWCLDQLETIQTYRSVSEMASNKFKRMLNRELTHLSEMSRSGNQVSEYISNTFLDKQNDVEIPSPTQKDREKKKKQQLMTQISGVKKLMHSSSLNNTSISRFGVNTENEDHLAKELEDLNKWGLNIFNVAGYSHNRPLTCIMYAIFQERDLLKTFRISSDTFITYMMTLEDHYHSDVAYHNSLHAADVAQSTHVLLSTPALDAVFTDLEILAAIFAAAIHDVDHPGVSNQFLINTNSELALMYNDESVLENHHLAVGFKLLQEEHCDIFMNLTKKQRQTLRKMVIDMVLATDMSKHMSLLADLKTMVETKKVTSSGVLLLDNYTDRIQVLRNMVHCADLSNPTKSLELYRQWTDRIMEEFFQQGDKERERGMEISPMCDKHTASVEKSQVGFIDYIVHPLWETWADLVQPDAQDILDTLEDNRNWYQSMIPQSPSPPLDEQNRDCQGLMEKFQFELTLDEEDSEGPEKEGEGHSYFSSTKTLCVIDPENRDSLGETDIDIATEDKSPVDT

[1] = human PDE4D, activity class, Table 9, read-out: hPDE4D
[2] = human PDE4B (hPDE4B), enzyme-coupled spectrophotometric assay, read-out: PDE4B Activity, hPDE4B

PDE4, sequence (Q08499 whole entry): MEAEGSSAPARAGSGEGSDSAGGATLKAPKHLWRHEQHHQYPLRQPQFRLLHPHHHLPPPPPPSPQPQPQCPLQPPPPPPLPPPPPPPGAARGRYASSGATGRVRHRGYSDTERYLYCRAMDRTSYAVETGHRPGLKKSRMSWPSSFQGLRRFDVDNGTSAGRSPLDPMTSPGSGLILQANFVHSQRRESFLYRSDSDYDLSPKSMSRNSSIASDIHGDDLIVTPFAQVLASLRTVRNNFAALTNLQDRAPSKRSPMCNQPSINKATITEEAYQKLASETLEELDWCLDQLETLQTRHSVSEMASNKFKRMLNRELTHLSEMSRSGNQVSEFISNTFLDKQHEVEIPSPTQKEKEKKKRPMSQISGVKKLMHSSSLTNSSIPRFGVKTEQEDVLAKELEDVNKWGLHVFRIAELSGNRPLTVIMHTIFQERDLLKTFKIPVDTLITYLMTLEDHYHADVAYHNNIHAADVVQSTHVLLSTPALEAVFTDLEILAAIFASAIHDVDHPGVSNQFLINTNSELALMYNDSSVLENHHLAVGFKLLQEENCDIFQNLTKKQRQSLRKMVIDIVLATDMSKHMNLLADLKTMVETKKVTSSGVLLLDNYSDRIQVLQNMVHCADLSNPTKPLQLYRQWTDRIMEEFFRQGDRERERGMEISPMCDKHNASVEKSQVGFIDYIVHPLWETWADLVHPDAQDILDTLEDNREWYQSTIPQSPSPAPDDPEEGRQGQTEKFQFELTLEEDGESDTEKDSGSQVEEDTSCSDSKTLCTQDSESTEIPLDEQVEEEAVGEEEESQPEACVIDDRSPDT

Row | IC50 (PDE4; [1]) [µM] | IC50 (PDE4B; [2]) [µM] | SMILES | IC50 (PDE4) [µM] | IC50 (PDE4B) [µM]
1 | < 5 | < 5 | COc1ccc(Cc2ccc(CNC(=O)N(C)C)nc2)c(F)c1-c1cccc(Cl)c1 [P-371, 3-[5-(3′-Chloro-2-fluoro-6-methoxy-biphenyl-3-ylmethyl)-pyridin-2-ylmethyl]-1,1-dimethyl-urea hydrochloride] |  | 
2 | 5 to 20 | 5 to 20 | COc1ccc(Cn2cnc3ccccc32)cc1-c1ccc2nonc2c1 [P-014, 5-(5-Benzoimidazol-1-ylmethyl-2-methoxy-phenyl)-benzo[1,2,5]oxadiazole] |  | 
3 | < 5 | < 5 | COc1ccc(Cc2ccc(-n3cncn3)nc2)c(F)c1-c1cccc(Cl)c1 [P-412] |  | 
4 | < 5 | 5 to 20 | COc1ccc(Cc2ccc3c(c2)OCO3)nc1-c1cccc([N+](=O)[O-])c1 [P-021, 6-benzo[1,3]dioxol-5-ylmethyl-3-methoxy-2-(3-nitro-phenyl)-pyridine] |  | 
5 | < 5 | < 5 | COc1ccc(Cc2ccc(F)cc2)c(N)c1-c1cccc([N+](=O)[O-])c1 [P-176, 3-(4-fluoro-benzyl)-6-methoxy-3′-nitro-biphenyl-2-ylamine] |  | 
6 | 20 to 40 | 21 to 40 | NCCOc1ccc(Cc2ccc(NC(N)=O)cc2)cc1-c1cccc(Cl)c1 [P-542, {4-[6-(2-Amino-ethoxy)-3′-chloro-biphenyl-3-ylmethyl]-phenyl}-urea] |  | 
7 | < 5 | < 5 | COc1ccc(Nc2ccc(N)cc2)cc1-c1cccc(Cl)c1 [P-280, N-(3′-Chloro-6-methoxy-biphenyl-3-yl)-benzene-1,4-diamine; hydrochloride] |  | 
8 | < 5 | < 5 | CN(CC(N)=O)c1ccc(Cc2ccc(OC(F)F)c(-c3cccc(Cl)c3)c2)cn1 [P-621, 2-{[5-(3′-Chloro-6-difluoromethoxy-biphenyl-3-ylmethyl)-pyridin-2-yl]-methyl-amino}-acetamide] |  | 
9 | < 5 | 5 to 20 | COc1ccc(CN2C(=O)c3ccccc3C2=O)cc1-c1cccc([N+](=O)[O-])c1 [P-042, 2-(6-Methoxy-3′-nitro-biphenyl-3-ylmethyl)-isoindole-1,3-dione] |  | 
10 |  |  | COc1ccc(Cc2cnc(NC(=O)NCCCl)nc2)c(F)c1-c1cccc(C(C)=O)c1 [P-366, 1-[5-(3′-Acetyl-2-fluoro-6-methoxy-biphenyl-3-ylmethyl)-pyrimidin-2-yl]-3-(2-chloro-ethyl)-urea] | < 5 | < 5
11 | < 5 | 21 to 40 | COc1ccc(Cc2ccc(C#N)c(O)c2)c(F)c1-c1cccc(Cl)c1 [P-295] |  | 
12 | < 5 | 5 to 20 | O=[N+]([O-])c1cccc(-c2cc(Cc3ccc(Cl)nc3)ccc2O)c1 [P-500] |  | 
13 | < 5 | < 5 | COc1ccc(CC2CCCS2)c(F)c1-c1cccc([N+](=O)[O-])c1 (centres unmarked) [P-127] |  | 
14 | < 5 | < 5 | COc1ccc(Cc2ccc(S(N)(=O)=O)cc2)c(F)c1-c1cccc(C(C)=O)c1 [P-304] |  | 
15 | < 5 | < 5 | COc1ccc(Cn2cccn2)cc1-c1cccc([N+](=O)[O-])c1 [P-077, 1-(6-Methoxy-3′-nitro-biphenyl-3-ylmethyl)-1H-pyrazole] |  | 
16 | 5 to 20 | 5 to 20 | COc1ccc(CN2C(=O)CC[C@H]2CO)cc1-c1cccc([N+](=O)[O-])c1 [P-131, (S)-5-Hydroxymethyl-1-(6-methoxy-3′-nitro-biphenyl-3-ylmethyl)-pyrrolidin-2-one] |  | 
17 | < 5 | < 5 | COc1ccc(Cc2csc(N)n2)c(F)c1-c1cccc(Cl)c1 [P-341, 4-(3′-Chloro-2-fluoro-6-methoxy-biphenyl-3-ylmethyl)-thiazol-2-ylamine] |  | 
18 | < 5 | < 5 | COc1ccc(Cn2cnc([N+](=O)[O-])c2)c(F)c1-c1cccc(Cl)c1 [P-536, 1-(3′-Chloro-2-fluoro-6-methoxy-biphenyl-3-ylmethyl)-4-nitro-1H-imidazole] |  | 
19 | < 5 | < 5 | CCNc1ccc(Cc2ccc(OC)c(-c3cccc(C(C)=O)c3)c2F)cn1 [P-339] |  | 
20 | < 5 | < 5 | CCNC(=O)Nc1ncc(Cc2ccc(OC)c(-c3cccc(C#N)c3)c2F)cn1 [P-399, 1-[5-(3′-Cyano-2-fluoro-6-methoxy-biphenyl-3-ylmethyl)-pyrimidin-2-yl]-3-ethyl-urea] |  | 
21 | < 5 | 5 to 20 | [2H]C(O)(c1ccc([N+](=O)[O-])cc1)c1ccc(OC)c(-c2cccc(Cl)c2)c1 (centres unmarked) [P-583] |  | 
22 | < 5 | < 5 | COc1ccc(Cc2ccnn2C)cc1-c1ccc2c(c1)OC(F)(F)O2 [P-115, 5-[3-(2,2-Difluoro-benzo[1,3]dioxol-5-yl)-4-methoxy-benzyl]-1-methyl-1H-pyrazole] |  | 
23 | < 5 | < 5 | COc1ccc(Nc2ccc(NS(C)(=O)=O)cc2)cc1-c1cccc(C(C)=O)c1 [P-267, N-[4-(3′-Acetyl-6-methoxy-biphenyl-3-ylamino)-phenyl]-methanesulfonamide] |  | 

Row | IC50 (PDE4; [1]) [µM] | IC50 (PDE4B; [2]) [µM] | SMILES | IC50 (PDE4) [µM] | IC50 (PDE4B) [µM]
24 | < 5 | < 5 | CCOC(=O)Cn1nc(C)c(Cc2ccc(OC)c(-c3cccc([N+](=O)[O-])c3)c2)c1C [P-087, [4-(6-Methoxy-3′-nitro-biphenyl-3-ylmethyl)-3,5-dimethyl-pyrazol-1-yl]-acetic acid ethyl ester] |  | 
25 |  |  | NC(=O)Oc1ccc(Cc2ccc(=O)[nH]n2)cc1-c1cccc([N+](=O)[O-])c1 [P-020, Carbamic acid 3′-nitro-5-(6-oxo-1,6-dihydro-pyridazin-3-ylmethyl)-biphenyl-2-yl ester] | 5 to 20 | 21 to 40
26 | < 5 | < 5 | CCNC(=O)N1CCC[C@@H]1COc1ccc(Cc2ccc(OC)c(-c3cccc(Cl)c3)c2F)cn1 [P-533, (R)-2-[5-(3′-Chloro-2-fluoro-6-methoxy-biphenyl-3-ylmethyl)-pyridin-2-yloxymethyl]-pyrrolidine-1-carboxylic acid ethylamide] |  | 
27 |  |  | COc1ccc(Cc2ccc(CNC(=O)Oc3ccccc3)nc2)cc1-c1cccc(Cl)c1 [P-592, [5-(3′-Chloro-6-methoxy-biphenyl-3-ylmethyl)-pyridin-2-ylmethyl]-carbamic acid phenyl ester] | < 5 | < 5
28 | < 5 | < 5 | COc1ccc(Oc2ccc(F)cc2)cc1-c1cccc([N+](=O)[O-])c1 [P-193, 5-(4-Fluoro-phenoxy)-2-methoxy-3′-nitrobiphenyl] |  | 
29 | 5 to 20 | 21 to 40 | COc1ccc(COC(C)C)nc1-c1cccc([N+](=O)[O-])c1 [P-030, 6-isopropoxymethyl-3-methoxy-2-(3-nitro-phenyl)-pyridine] |  | 
30 | < 5 | < 5 | COc1ccc(Cc2ccnc(N3CCNCC3)c2)c(F)c1-c1cccc(Cl)c1 [P-515, 1-[4-(3′-Chloro-2-fluoro-6-methoxy-biphenyl-3-ylmethyl)-pyridin-2-yl]-piperazine] |  | 
31 | < 5 | 5 to 20 | COc1cccc(-c2cc(Cn3cncn3)ccc2OC)c1 [P-086, 1-(6,3′-Dimethoxy-biphenyl-3-ylmethyl)-1H-[1,2,4]triazole] |  | 
32 | < 5 | < 5 | COc1ccc(Cc2ccc(CN)nc2)c(F)c1-c1cccc(Cl)c1 [P-344, C-[5-(3′-Chloro-2-fluoro-6-methoxy-biphenyl-3-ylmethyl)-pyridin-2-yl]-methylamine] |  | 
33 | 20 to 40 | 21 to 40 | COc1ccc(Cn2c(N)cccc2=O)cc1-c1cccc([N+](=O)[O-])c1 [P-236, 6-Amino-1-(6-methoxy-3′-nitro-biphenyl-3-ylmethyl)-1H-pyridin-2-one] |  | 
34 | < 5 | < 5 | COc1ccc(Cc2ccc(F)c(CO)c2)cc1-c1cccc([N+](=O)[O-])c1 [P-135] |  | 
35 | < 5 | 5 to 20 | COc1ccc(Cc2ccc(C(N)=O)cc2)cc1-c1cccc(Cl)c1 [P-240, 4-(3′-Chloro-6-methoxy-biphenyl-3-ylmethyl)-benzamide] |  | 
36 | < 5 | < 5 | COc1ccc(Cc2ccc(F)cc2)cc1-c1cccc(-c2nnco2)c1 [P-118, 2-[5′-(4-Fluoro-benzyl)-2′-methoxy-biphenyl-3-yl]-[1,3,4]oxadiazole] |  | 
37 | < 5 | < 5 | CCOc1ccc(Cc2ccc(NC(N)=O)cc2)cc1-c1cccc(Cl)c1 [P-541, [4-(3′-Chloro-6-ethoxy-biphenyl-3-ylmethyl)-phenyl]-urea] |  | 
38 | < 5 | < 5 | COc1ccc(C(=O)c2ccc(N)cc2)cc1-c1ccc2c(c1)OCCO2 [P-578] |  | 
39 | < 5 | < 5 | COc1ccc(Cc2ccc(NC(N)=O)cc2)c(F)c1-c1cccc(Br)c1 [P-347] |  | 
40 | < 5 | 5 to 20 | COc1ccc(Nc2ccc(N)cc2)cc1-c1cccc(C(C)=O)c1 [P-260, 1-[5′-(4-Amino-phenylamino)-2′-methoxy-biphenyl-3-yl]-ethanone hydrochloride] |  | 
41 | < 5 | < 5 | COc1ccc(Cc2ccc(NS(C)(=O)=O)cc2)c(F)c1-c1cccc(Br)c1 [P-200] |  | 
42 | < 5 | < 5 | COc1ccc(Cc2ccnc(N3CCN(C(N)=O)CC3)c2)c(F)c1-c1cccc(Cl)c1 [P-518, 4-[4-(3′-Chloro-2-fluoro-6-methoxy-biphenyl-3-ylmethyl)-pyridin-2-yl]-piperazine-1-carboxylic acid amide] |  | 
43 | 5 to 20 | 21 to 40 | COCc1ccc(OC)c(-c2cccc([N+](=O)[O-])c2)n1 [P-025, 3-methoxy-6-methoxymethyl-2-(3-nitro-phenyl)-pyridine] |  | 
44 | 5 to 20 | 21 to 40 | CN1CC[C@@H](Oc2ccc(Cc3ccc(NC(N)=O)cc3)cc2-c2cccc(Cl)c2)C1 [P-565, {4-[3′-Chloro-6-((R)-1-methyl-pyrrolidin-3-yloxy)-biphenyl-3-ylmethyl]-phenyl}-urea] |  | 
45 | < 5 | < 5 | CCNC(=O)Nc1ccc(Cc2ccc(OC)c(-c3cccc(Cl)c3)c2F)cc1 [P-250] |  | 
46 | < 5 | < 5 | COc1ccc(Cc2cnc(N(C)CCO)nc2)c(F)c1-c1cccc(Cl)c1 [P-458, 2-{[5-(3′-Chloro-2-fluoro-6-methoxy-biphenyl-3-ylmethyl)-pyrimidin-2-yl]-methyl-amino}-ethanol] |  | 
